Experimental data published in patent US9440969B2, “Compounds and methods for kinase modulation, and indications therefor” (PLEXXIKON INC., priority 2009, dated 2016).

Biological target: CYP3A4(BQ) (Homo sapiens, UniProt P08684)
Assay: CYP3A4 inhibition (substrate BQ)
Format: in vitro ADME
Details: read-out: Cyp IC50 (μM) 3A4(BQ)
Protocol: CYP (Cytochrome P450) enzymes are the major drug metabolizing enzymes present in the liver. The inhibition of CYP enzyme activity (IC50) for each of CYP1A2, CYP2C19, CYP2C9, CYP2D6, CYP3A4(BFC) and CYP3A4(BQ) is determined for compounds, where inhibition of metabolism of a known substrate leads to a decrease in the fluorescence of the metabolized product. The fluorescence of the product is monitored as a function of compound concentration. Compounds are dissolved in dimethyl sulfoxide to a concentration of 100 mM. These are diluted […], into 82 μL of acetonitrile. An 11 μL aliquot of this solution is then added to 204 μL of cofactor mix (1.3% NADPH Regeneration system Solution A, 1.04% NADPH Regeneration system Solution B from BD Biosciences, 5% acetonitrile and 0.05% dimethyl sulfoxide). These are then serially diluted 1:1 (160 μL to 160 μL co-factor mix) for a total of 10 points. A 10 μL aliquot of this final mixture is dispensed into 384 well assay plates and incubated for 10 minutes at 37° C. Enzyme and substrate mix (10 μL; 0.5 pmol CYP1A2/5 μM CEC; 1.0 pmol CYP2C9/75 μM MFC; 0.5 pmol CYP2C19/25 μM CEC; 1.5 pmol CYP2D6/1.5 μM AMMC; 1.0 pmol CYP3A4/50 μM BFC; or 1.0 pmol CYP3A4/40 μM BQ) is added to these assay plates. Assay plates are incubated at 37° C. (CYP1A2-15 min; CYP2C9-45 min; CYP2C19, 2D6 and 3A4-30 min) and read in a Tecan Safire 2 plate reader (CYP1A2, 2C19 and 3A4 409 ex/460 em; CYP2C9 and 2D6 409 ex/530 em). The signal versus compound concentration is used to determine the IC50. The enzymes and substrates for this assay are obtained from BD Biosciences.

CYP3A4(BQ), sequence (P08684 whole entry): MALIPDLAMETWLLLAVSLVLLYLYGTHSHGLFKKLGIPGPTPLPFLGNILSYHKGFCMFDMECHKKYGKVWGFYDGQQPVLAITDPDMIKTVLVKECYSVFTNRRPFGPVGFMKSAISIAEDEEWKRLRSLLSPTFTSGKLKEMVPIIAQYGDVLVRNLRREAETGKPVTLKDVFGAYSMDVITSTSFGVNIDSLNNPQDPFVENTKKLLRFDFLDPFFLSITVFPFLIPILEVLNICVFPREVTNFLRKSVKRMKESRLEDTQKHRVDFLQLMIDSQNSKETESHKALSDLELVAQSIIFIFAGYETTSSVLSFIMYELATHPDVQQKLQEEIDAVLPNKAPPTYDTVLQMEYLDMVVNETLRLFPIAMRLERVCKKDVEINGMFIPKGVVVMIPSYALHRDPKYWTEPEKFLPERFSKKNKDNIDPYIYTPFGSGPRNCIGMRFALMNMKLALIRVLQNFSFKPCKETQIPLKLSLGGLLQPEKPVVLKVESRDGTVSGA

Compound	IC50 [µM]
CCCS(=O)(=O)Nc1ccc(F)c(C(=O)c2c[nH]c3ncc(-c4ccc5[nH]cc(C)c5c4)cc23)c1F [P-0023, Propane-1-sulfonic acid {2,4-difluoro-3-[5-(3-methyl-1H-indol-5-yl)-1H-pyrrolo[2,3-b]pyridine-3-carbonyl]-phenyl}-amide]	> 10
CCCS(=O)(=O)Nc1ccc(F)c(C(=O)c2c[nH]c3ncc(-c4ccc5cn(C)nc5c4)cc23)c1F [P-0011, Propane-1-sulfonic acid {2,4-difluoro-3-[5-(2-methyl-2H-indazol-6-yl)-1H-pyrrolo[2,3-b]pyridine-3-carbonyl]-phenyl}-amide]	> 10
CCCS(=O)(=O)Nc1ccc(F)c(C(=O)c2c[nH]c3ncc(-c4ccc5[nH]ccc5c4)cc23)c1F [P-0012, Propane-1-sulfonic acid {2,4-difluoro-3-[5-(1H-indol-5-yl)-1H-pyrrolo[2,3-b]pyridine-3-carbonyl]-phenyl}-amide]	> 10
Cc1ncc(-c2cnc3[nH]cc(C(=O)c4c(F)ccc(NS(=O)(=O)c5cc(F)ccc5F)c4F)c3c2)cn1 [P-1503, N-{2,4-Difluoro-3-[5-(2-methyl-pyrimidin-5-yl)-1H-pyrrolo[2,3-b]pyridine-3-carbonyl]-phenyl}-2,5-difluoro-benzenesulfonamide]	> 10
CCCS(=O)(=O)Nc1ccc(F)c(C(=O)c2c[nH]c3ncc(-c4ccc5ncsc5c4)cc23)c1F [P-0020, Propane-1-sulfonic acid [3-(5-benzothiazol-6-yl-1H-pyrrolo[2,3-b]pyridine-3-carbonyl)-2,4-difluoro-phenyl]-amide]	> 10
CCCS(=O)(=O)Nc1ccc(F)c(C(=O)c2c[nH]c3ncc(-c4ccc5nn(C)cc5c4)cc23)c1F [P-0010, Propane-1-sulfonic acid {2,4-difluoro-3-[5-(2-methyl-2H-indazol-5-yl)-1H-pyrrolo[2,3-b]pyridine-3-carbonyl]-phenyl}-amide]	> 10
CCCS(=O)(=O)Nc1ccc(F)c(C(=O)c2c[nH]c3ncc(-c4ccc5cncnc5c4)cc23)c1F [P-0025, Propane-1-sulfonic acid [2,4-difluoro-3-(5-quinazolin-7-yl-1H-pyrrolo[2,3-b]pyridine-3-carbonyl)-phenyl]-amide]	> 10

The remaining lines, values ahead:

IC50 [µM]	Compound
> 10	Cc1ccc(-c2cnc3[nH]cc(C(=O)c4c(F)ccc(NS(=O)(=O)c5cc(F)ccc5F)c4F)c3c2)cn1 [P-1408, N-{2,4-Difluoro-3-[5-(6-methyl-pyridin-3-yl)-1H-pyrrolo[2,3-b]pyridine-3-carbonyl]-phenyl}-2,5-difluoro-benzenesulfonamide]
> 10	CCCS(=O)(=O)Nc1ccc(F)c(C(=O)c2c[nH]c3ncc(-c4cccc5nn(C)cc45)cc23)c1F [P-0015, Propane-1-sulfonic acid {2,4-difluoro-3-[5-(2-methyl-2H-indazol-4-yl)-1H-pyrrolo[2,3-b]pyridine-3-carbonyl]-phenyl}-amide]
> 10	O=C(c1c(F)ccc(NS(=O)(=O)c2ccc(C(F)(F)F)cc2)c1F)c1c[nH]c2ncc(-c3cnn(C4CCNCC4)c3)cc12 [P-1004, N-{2,4-Difluoro-3-[5-(1-piperidin-4-yl-1H-pyrazol-4-yl)-1H-pyrrolo[2,3-b]pyridine-3-carbonyl]-phenyl}-4-trifluoromethyl-benzenesulfonamide]
> 10	CCCS(=O)(=O)Nc1ccc(F)c(C(=O)c2c[nH]c3ncc(-c4cnn(C5CCNCC5)c4)cc23)c1F [P-1002, Propane-1-sulfonic acid {2,4-difluoro-3-[5-(1-piperidin-4-yl-1H-pyrazol-4-yl)-1H-pyrrolo[2,3-b]pyridine-3-carbonyl]-phenyl}-amide]
